Assay results published in US20210123061A1, “METHODS AND COMPOSITIONS FOR TREATING INFLAMMATORY DISEASE OR DISORDER” (THE BRIGHAM AND WOMEN'S HOSPITAL, INC., priority 2018, published 2021).

System: RSK-substrates (RXXpS/T phospho-peptides)
Test: Phospho-proteomics with anti-RXXpS/T enrichment in IFN-γ-stimulated macrophages
Format: cell-based, human
Details: BI-D1870 +IFNg, IP:RXXpS/T, DMSO = 1.00
Method: (FIG. 6A) Scheme of phospho-proteomics. Human PBMC-derived macrophages were treated with DMSO or BI-D1870 for two hours followed by IFN-γ stimulation for subsequent proteolysis and phospho-peptide enrichment using the anti-RXXpS/T antibody strategy. […] N=2 donors. […] The average shortest distance of the same number of randomly selected genes to disease genes was calculated for N=250 realizations in order to compare the average shortest distance value to random expectation. Empirical p-values were calculated based on 100 degree-preserved randomizations of the first neighbor networks.
Phospho-proteomics. Phospho-peptide immunoaffinity purification from cell lysates was performed as described previously (36), with minor modifications. Human PBMC-derived macrophages were pretreated with DMSO or BI-D1870 followed by IFN-γ stimulation. Cell lysates (8.0 mg) were proteolyzed (Lys-C, Wako Chemicals) using in-solution urea strategy detailed previously (34). Trifluoroacetic acid (TFA) was added to protein digests to a final concentration of 1%, precipitate was removed by centrifugation, and digests were loaded onto Sep-Pak C18 columns (Waters) equilibrated with 0.1% TFA. Columns were washed with 0.1% TFA and wash buffer (0.1% TFA, 5% acetonitrile). A peptide fraction was obtained by elution with elution buffer (0.1% TFA, 40% acetonitrile). The peptide eluate was frozen overnight and lyophilize frozen peptide solution for 2 days. Peptides were dissolved in 1.4 mL of IAP buffer (Cell signaling Technology). Insoluble matter was removed by centrifugation. […] The immobilized antibody beads were washed three times with 1 ml IAP buffer and three times with 1 ml water, all at 4° C. Peptides were eluted from beads by incubation with 55 μl of 0.15% TFA at room temperature for 10 minutes (eluate 1), followed by a wash of the beads (eluate 2) with 50 μl of 0.15% TFA. Both eluates were combined. The peptide solution was desalted using Oasis Hlb 1 cc columns (Waters), dried in a SpeedVac, resuspend with Trypsin solution, and digested overnight. After desalting using Oasis Hlb 1 cc columns, peptides were dried in a SpeedVac, and resuspend with 40 μl of 5% acetonitrile and 0.5% formic acid for subsequent analysis by liquid chromatography/mass spectrometry (LC/MS).
Each peptide sample was analyzed four times: a full scan range of 350-1800 m/z and three gas phase separation scans—350-500 m/z, 500-700 m/z, and 700-1200 m/z in order to increase phospho-peptide signals.
Phospho-proteomics and kinase assays. The MS/MS data were queried as above using a 10-ppm tolerance window in the MS1 search space, and a 0.02 Da fragment tolerance window for EThcD or HCD. Methionine oxidation, and phosphorylation of serine and threonine were set as variable modifications, and carbamidomethylation of cysteine residues was set as fixed modifications. High confidently assigned phospho-peptides were used for precursor ion area under the curve (AUC) quantification. The peptides that were detected in IgG conditions were considered as non-specific signals and excluded. The normalized precursor ion intensities were exported from PD2.1.

Structure (SMILES): CC(C)CCN1c2nc(Nc3cc(F)c(O)c(F)c3)ncc2N(C)C(=O)C1C (stereo not drawn) [BI-D1870]
- Intensity of phospho-peptide SLC20A1 S335 [R].ERLPSVDLK.[E] (DMSO +IFNg = 1.51): 0.51
- Intensity of phospho-peptide LUC7L3 T238 [R].KRTEEPDRDER.[L] (DMSO +IFNg = 1.55): 1.03
- Intensity of phospho-peptide STX7 S129 [R].ASSRVSGSFPEDSSK.[E] (DMSO +IFNg = 1.60): 0.67
- Intensity of phospho-peptide AP1AR T228 [R].SKTEEDILR.[A] (DMSO +IFNg = 1.67): 0.80
- Intensity of phospho-peptide AKAP13 T2471 [R].RAETFGGFDSHQMNASK.[G] (DMSO +IFNg = 1.68): 0.73
- Intensity of phospho-peptide CLASP1 S646 [R].RQSSGSATNVASTPDNR.[G] (DMSO +IFNg = 1.75): 0.94
- Intensity of phospho-peptide TRPM7 S1504 [R].RPSTEDTHEVDSK.[A] (DMSO +IFNg = 1.75): 0.73
- Intensity of phospho-peptide SLC4A7 S407 [R].ENSTVDFSK.[VEG] (DMSO +IFNg = 1.79): 1.61
- Intensity of phospho-peptide IFNGR1 T295 [R].SATLETKPESK.[Y] (DMSO +IFNg = 1.83): 0.77
- Intensity of phospho-peptide RPS6 S235 [K].RRRLSSLRASTSK.[S] (DMSO +IFNg = 1.86): 0.74
- Intensity of phospho-peptide REPS1 S650 [R].LKSEDELRPEVDEHTQK.[T] (DMSO +IFNg = 1.91): 0.94
- Intensity of phospho-peptide REPS1 S650 [R].RLKSEDELRPEVDEHTQK.[T] (DMSO +IFNg = 1.96): 1.09
- Intensity of phospho-peptide GPBP1 S49 [R].HNSSDGFDSAIGRPNGGNFGR.[K] (DMSO +IFNg = 2.05): 0.45
- Intensity of phospho-peptide MYO1E T935 [R].RNTTQNTGYSSGTQNANYPVR.[A] (DMSO +IFNg = 2.15): 0.88
- Intensity of phospho-peptide CHP1 T7 [R].ASTLLRDEELEEIKK.[E] (DMSO +IFNg = 2.18): 1.00
- Intensity of phospho-peptide NDRG3 S338 [R].THSTSSSLGSGESPFSR.[S] (DMSO +IFNg = 2.25): 1.07
- Intensity of phospho-peptide GPBP1 S49 [R].RHNSSDGFDSAIGRPNGGNFGR.[K] (DMSO +IFNg = 2.28): 1.00
- Intensity of phospho-peptide NDRG1 S330 [R].TASGSSVTSLDGTR.[S] (DMSO +IFNg = 2.29): 1.88
- Intensity of phospho-peptide STK11IP S398 [R].RASISEPSDTDPEPR.[T] (DMSO +IFNg = 2.31): 0.58
- Intensity of phospho-peptide EIF4B S422 [R].TGSESSQTGTSTTSSR.[SN] (DMSO +IFNg = 2.58): 1.29
- Intensity of phospho-peptide SPECC1L T838 [R].RSSTSSEPTPTVK.[T] (DMSO +IFNg = 2.80): 1.80
- Intensity of phospho-peptide AKT1S1 T266 [R].LNTSDFQK.[L] (DMSO +IFNg = 3.11): 0.89
- Intensity of phospho-peptide RPS6 S235; S236 [R].RLSSLRASTSK.[S] (DMSO +IFNg = 3.46): 1.65
- Intensity of phospho-peptide FLNA S2152 [R].RAPSVANVGSHCDLSLK.[I] (DMSO +IFNg = 3.67): 1.32
